Calls of active or inactive are those of the source. The rule behind the calls is not given here.

Drawing on PubChem BioAssay AID540371 (The Scripps Research Institute Molecular Screening Center, 2011), this text covers IC50 for 31 molecules.

For this assay, the target named is Melanin-concentrating hormone receptor 1 (Homo sapiens) (UniProt Q99705). Briefly: MCHR1 antagonists, late-stage follow-up, selectivity assay for GPR7 antagonist project, cell-based, fluorescence, dose response, set 3 (AID 540371). The settings on record: MCHR1-expressing cells.

In the case of `CCCOc1ccc(Oc2c(Cl)cnn(C3c4ccccc4-c4ccccc43)c2=O)cc1`, the IC50 runs as follows: (run 1) > 20 µM (inactive); (run 2) > 20 µM (inactive); (run 3) > 20 µM (inactive).

For `COc1ccc(Oc2c(Cl)cnn(CC(=O)C(c3ccccc3)c3ccccc3)c2=O)cc1`, the 50% inhibitory concentration (IC50) (run 1) is 2.92 µM, the IC50 (run 2) is 2.87 µM and the IC50 (run 3) is 5.49 µM.

On to `COc1ccc(Sc2c(Cl)cnn(Cc3cccc4ccccc34)c2=O)cc1`, for which the IC50 entry reads like this: (run 1) “inactive”; (run 2) “inactive”; (run 3) “inactive”.

Consider `COc1ccc(Oc2c(C#N)cnn(Cc3cccc4ccccc34)c2=O)cc1`, for which the IC50 reads like this: (run 1) 2.09 µM; (run 2) 2.25 µM; (run 3) 2.22 µM.

Consider `COc1ccc(Oc2c(Cl)cnn(C3c4ccccc4-c4ccccc43)c2=O)cc1`, for which the IC50 by setting is: (run 1) > 20 µM (inactive); (run 2) > 20 µM (inactive); (run 3) > 20 µM (inactive).

In the case of `CCc1ccc(Oc2c(Cl)cnn(Cc3cccc4ccccc34)c2=O)cc1`, the IC50 (run 1) was 1.95 µM, the half-inhibitory concentration (IC50) (run 2) is 1.72 µM and the IC50 (run 3) was 2.08 µM.

Turning to `COc1ccc(Oc2c(Cl)cnn(Cc3c(F)cccc3F)c2=O)cc1`, the IC50 entry is “inactive” (run 1), “inactive” (run 2) and “inactive” (run 3).

Take `CCOc1ccc(Oc2c(S(C)=O)cnn(Cc3cccc4ccccc34)c2=O)cc1` (stereo not drawn): the IC50 (run 1) was 6.19 µM. Also, the IC50 result is, setting by setting: (run 2) “inactive”; (run 3) “inactive”.

For the molecule `C=Cc1nn(Cc2ccccc2C)c(=O)c(Oc2ccc(OC)cc2)c1C=C`, the IC50 is 1.43 µM (run 1), 1.31 µM (run 2) and 1.45 µM (run 3).

For the molecule `CCOc1ccc(Oc2c(Cl)cnn(C3c4ccccc4-c4ccccc43)c2=O)cc1`, the IC50 is > 20 µM (inactive) (run 1), > 20 µM (inactive) (run 2) and > 20 µM (inactive) (run 3).

With `COc1ccc(Oc2c(Cl)cnn(C(C(=O)c3ccccc3)c3ccccc3)c2=O)cc1` (stereo not drawn), the IC50 entry (run 1) was “inactive”. Also, the IC50 reads like this: (run 2) > 20 µM (inactive); (run 3) > 20 µM (inactive).

Take `CCOc1ccc(Oc2c(Cl)cnn(Cc3cccc4ccccc34)c2=O)cc1`: the IC50 (run 1) is 1.59 µM, the half-maximal inhibitory concentration (IC50) (run 2) was 5.22 µM and the IC50 (run 3) was 6.71 µM.

Take `COc1ccc(Oc2c(Cl)cnn(C(c3ccccc3)c3ccccc3)c2=O)cc1`: the IC50 result (run 1) was “inactive”. The IC50 was > 20 µM (inactive) (run 2) and 7.22 µM (run 3).

For `COc1ccc(Oc2c(Br)cnn(Cc3cccc4ccccc34)c2=O)cc1`, the IC50 is 0.892 µM (run 1), 2.14 µM (run 2) and 1.66 µM (run 3).

`COc1ccc(Oc2c(Cl)cnn(Cc3cccc4ccccc34)c2=O)cc1`: the IC50 is, setting by setting: (run 1) 0.988 µM; (run 2) 1.7 µM; (run 3) 1.61 µM.

Consider `COc1ccc(Oc2c(Cl)cnn(Cc3ccc4ccccc4c3)c2=O)cc1`, for which the IC50 (run 1) was 4.01 µM. In addition, the IC50 entry is “inactive” (run 2) and “inactive” (run 3).

Consider `COc1ccc(Oc2c(Cl)cnn(Cc3c(C)ccc4ccccc34)c2=O)cc1`, for which the IC50 runs as follows: (run 1) 0.77 µM; (run 2) 0.815 µM; (run 3) 0.836 µM.

As to `CCOc1ccc(Oc2c(Cl)c(Br)nn(Cc3cccc4ccccc34)c2=O)cc1`, the IC50 is 2.39 µM (run 1) and 6.02 µM (run 2). Besides, where the note is “run 3”, the IC50 result is “inactive”.

In the case of `COc1ccc(Oc2c(Cl)cnn(Cc3ccccc3C)c2=O)cc1`, the IC50 is, setting by setting: (run 1) 3.06 µM; (run 2) 7.68 µM; (run 3) 5.64 µM.

For `CCOC(=O)C(c1cccc2ccccc12)n1ncc(Cl)c(Oc2ccc(OC)cc2)c1=O` (stereo not drawn), the IC50 runs as follows: (run 1) > 20 µM (inactive); (run 2) > 20 µM (inactive); (run 3) > 20 µM (inactive).

As to `COc1ccc(Oc2c(Cl)cnn(Cc3c4ccccc4cc4ccccc34)c2=O)cc1`, the IC50 was > 20 µM (inactive) (run 1) and > 20 µM (inactive) (run 2). For the same molecule, the IC50 result (run 3) is “inactive”.

In the case of `COc1ccc(Oc2c(Cl)c(C#N)nn(Cc3ccccc3C)c2=O)cc1`, the IC50 runs as follows: (run 1) 2.52 µM; (run 2) 2.33 µM; (run 3) 2.71 µM.

Turning to `O=c1c(Oc2ccc3c(c2)CCO3)c(Cl)cnn1Cc1cccc2ccccc12`, the IC50 is, setting by setting: (run 1) 7.4 µM; (run 2) > 20 µM (inactive); (run 3) > 20 µM (inactive).

As to `COc1ccc(Nc2c(Cl)cnn(Cc3cccc4ccccc34)c2=O)cc1`, the IC50 entry (run 1) is “inactive” and the IC50 result (run 2) is “inactive”. In addition, the IC50 (run 3) was > 20 µM (inactive).

In the case of `COc1ccc(Oc2c(Cl)cnn(Cc3cc(C)cc(C)c3)c2=O)cc1`, the IC50 (run 1) is 1.5 µM and the half-maximal inhibitory concentration (IC50) (run 3) was 6.46 µM. Besides, the IC50 entry (run 2) is “inactive”.

With `CCCOc1ccc(Oc2c(Cl)cnn(Cc3cccc4ccccc34)c2=O)cc1`, the IC50 result (run 1) was “inactive”. The IC50 (run 2) is > 20 µM (inactive) and the IC50 (run 3) was > 20 µM (inactive).

On to `COc1ccc(Oc2c(Cl)cnn(Cc3cccc4cnccc34)c2=O)cc1`, for which the IC50 was 5.15 µM (run 1), 4.96 µM (run 2) and 5.67 µM (run 3).

Consider `COc1ccc(Oc2c(Cl)cnn(Cc3ccccc3)c2=O)cc1`, for which the concentration for half-maximal inhibition (IC50) (run 1) is 8.51 µM. The IC50 entry is “inactive” (run 2) and “inactive” (run 3).

For the molecule `COc1ccc(Oc2c(Cl)cnn(Cc3ccccc3-c3ccccc3)c2=O)cc1`, the IC50 is 1.12 µM (run 1), 2.24 µM (run 2) and 4.59 µM (run 3).

With `CCOC(=O)C(c1ccccc1)n1ncc(Cl)c(Oc2ccc(OC)cc2)c1=O` (stereo not drawn), the IC50 by setting is: (run 1) 8.48 µM; (run 3) 8.11 µM. The IC50 entry (run 2) was “inactive”.

Regarding `COc1ccc(Oc2c(Cl)cnn(Cc3ccccc3C(F)(F)F)c2=O)cc1`, the IC50 by setting is: (run 1) 4.49 µM; (run 2) 4.57 µM; (run 3) 3.34 µM.
